According to ChEMBL document CHEMBL1130110 (J Med Chem, 1997):

Key:
Glucagon receptor [1] = target: T1, Glucagon receptor (Rattus norvegicus, UniProt P30082); assay: pA2 value against Glucagon Receptor; details: read-out: pA2 (converted)
Glucagon receptor [2] = target: T1, Glucagon receptor; assay: (§1) Binding affinity towards Glucagon receptor in rat liver plasma membranes by displacement of 125 I-labelled glucagon; format: cell membranes
Glucagon receptor [3] = target: T1, Glucagon receptor; assay: Effective concentration was determined in cAMP accumulation assay using isolated hepatocytes in the presence rolipram.; format: functional, cell-based; details: hepatocyte
Glucagon receptor [4] = target: T1, Glucagon receptor; assay: as §1; format: cell membranes, Plasma Membrane

T1 sequence (P30082 whole entry): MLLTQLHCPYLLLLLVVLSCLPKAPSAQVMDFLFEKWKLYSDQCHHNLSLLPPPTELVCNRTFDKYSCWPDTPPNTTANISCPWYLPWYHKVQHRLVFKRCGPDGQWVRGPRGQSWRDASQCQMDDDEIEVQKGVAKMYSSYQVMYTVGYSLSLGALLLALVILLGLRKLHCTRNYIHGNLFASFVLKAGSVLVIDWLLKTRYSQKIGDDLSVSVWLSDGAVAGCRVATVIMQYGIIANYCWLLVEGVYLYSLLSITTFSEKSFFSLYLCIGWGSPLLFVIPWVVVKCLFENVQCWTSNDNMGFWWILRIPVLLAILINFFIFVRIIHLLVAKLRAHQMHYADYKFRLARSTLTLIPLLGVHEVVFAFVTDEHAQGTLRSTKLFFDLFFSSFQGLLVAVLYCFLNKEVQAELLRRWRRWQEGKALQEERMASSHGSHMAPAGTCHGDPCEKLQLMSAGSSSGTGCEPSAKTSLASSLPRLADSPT

Structure (SMILES) | Kb (Glucagon receptor [1]) | IC50 (Glucagon receptor [2]) | EC50 (Glucagon receptor [3]) | IC50 (Glucagon receptor [4])
CSCC[C@H](NC(=O)[C@H](CC(C)C)NC(=O)[C@H](Cc1c[nH]c2ccccc12)NC(=O)[C@H](CCC(N)=O)NC(=O)[C@@H](NC(=O)[C@H](Cc1ccccc1)NC(=O)[C@H](CC(=O)O)NC(=O)[C@H](CCC(N)=O)NC(=O)[C@H](C)NC(=O)[C@H](CCCN=C(N)N)NC(=O)[C@H](CCCN=C(N)N)NC(=O)[C@H](CO)NC(=O)[C@H](CC(=O)O)NC(=O)[C@H](CC(C)C)NC(=O)[C@H](Cc1ccc(O)cc1)NC(=O)[C@H](CCCCN)NC(=O)[C@H](CO)NC(=O)[C@H](Cc1ccc(O)cc1)NC(=O)[C@H](CC(=O)O)NC(=O)[C@H](CO)NC(=O)[C@@H](NC(=O)[C@@H](NC(=O)CNC(=O)[C@H](CCC(N)=O)NC(=O)[C@H](CO)NC(=O)[C@@H](N)Cc1c[nH]cn1)[C@@H](C)O)[C@@H](C)O)C(C)C)C(=O)N[C@@H](CC(N)=O)C(=O)N[C@H](C(N)=O)[C@@H](C)O | 0.501 µM | 0.512 µM | Not Active | –
CSCC[C@H](NC(=O)[C@H](CC(C)C)NC(=O)[C@H](Cc1c[nH]c2ccccc12)NC(=O)[C@H](CCC(N)=O)NC(=O)[C@@H](NC(=O)[C@H](Cc1ccccc1)NC(=O)[C@H](CC(=O)O)NC(=O)[C@H](CCC(N)=O)NC(=O)[C@H](C)NC(=O)[C@H](CCCNC(=N)N)NC(=O)[C@H](CCCNC(=N)N)NC(=O)[C@H](CO)NC(=O)[C@H](CC(=O)O)NC(=O)[C@H](CC(C)C)NC(=O)[C@H](Cc1ccc(O)cc1)NC(=O)[C@H](CCCCN)NC(=O)[C@H](CO)NC(=O)[C@H](Cc1ccc(O)cc1)NC(=O)[C@H](CCC(=O)O)NC(=O)[C@H](CO)NC(=O)[C@@H](NC(=O)[C@H](C)NC(=O)[C@@H](NC(=O)CNC(=O)[C@H](CCC(N)=O)NC(=O)[C@@H](N)CO)[C@@H](C)O)[C@@H](C)O)C(C)C)C(=O)N[C@@H](CC(N)=O)C(=O)N[C@H](C(N)=O)[C@@H](C)O | 0.398 µM | – | – | 0.126 µM
CSCC[C@H](NC(=O)[C@H](CC(C)C)NC(=O)[C@H](Cc1c[nH]c2ccccc12)NC(=O)[C@H](CCC(N)=O)NC(=O)[C@@H](NC(=O)[C@H](Cc1ccccc1)NC(=O)[C@H](CC(=O)O)NC(=O)[C@H](CCC(N)=O)NC(=O)[C@H](C)NC(=O)[C@H](CCCN=C(N)N)NC(=O)[C@H](CCCN=C(N)N)NC(=O)[C@H](CO)NC(=O)[C@H](CC(=O)O)NC(=O)[C@H](CC(C)C)NC(=O)[C@H](Cc1ccc(O)cc1)NC(=O)[C@H](CCCCN)NC(=O)[C@H](CO)NC(=O)[C@H](Cc1ccc(O)cc1)NC(=O)[C@H](CCC(=O)O)NC(=O)[C@H](CO)NC(=O)[C@@H](NC(=O)[C@@H](NC(=O)CNC(=O)[C@H](CCC(N)=O)NC(=O)[C@H](CO)NC(=O)[C@@H](N)Cc1c[nH]cn1)[C@@H](C)O)[C@@H](C)O)C(C)C)C(=O)N[C@@H](CC(N)=O)C(=O)N[C@H](C(N)=O)[C@@H](C)O | 0.631 µM | 0.113 µM | Not Active | –
CSCC[C@H](NC(=O)[C@H](CC(C)C)NC(=O)[C@H](Cc1c[nH]c2ccccc12)NC(=O)[C@H](CCC(N)=O)NC(=O)[C@@H](NC(=O)[C@H](Cc1ccccc1)NC(=O)[C@H](CC(=O)O)NC(=O)[C@H](CCC(N)=O)NC(=O)[C@H](C)NC(=O)[C@H](CCCN=C(N)N)NC(=O)[C@H](CCCN=C(N)N)NC(=O)[C@H](CO)NC(=O)[C@H](CC(=O)O)NC(=O)[C@H](CC(C)C)NC(=O)[C@H](Cc1ccc(O)cc1)NC(=O)[C@H](CCCCN)NC(=O)[C@H](CO)NC(=O)[C@H](Cc1ccc(O)cc1)NC(=O)[C@H](CC(=O)O)NC(=O)[C@H](CO)NC(=O)[C@@H](NC(=O)[C@@H](NC(=O)CNC(=O)[C@H](CCC(N)=O)NC(=O)[C@@H](N)CO)[C@@H](C)O)[C@@H](C)O)C(C)C)C(=O)N[C@@H](CC(N)=O)C(=O)N[C@H](C(N)=O)[C@@H](C)O | 0.562 µM | 0.128 µM | Not Active | –
CSCC[C@H](NC(=O)[C@H](CC(C)C)NC(=O)[C@H](Cc1c[nH]c2ccccc12)NC(=O)[C@H](CCC(N)=O)NC(=O)[C@@H](NC(=O)[C@H](Cc1ccccc1)NC(=O)[C@H](CC(=O)O)NC(=O)[C@H](CCC(N)=O)NC(=O)[C@H](C)NC(=O)[C@H](CCCN=C(N)N)NC(=O)[C@H](CCCN=C(N)N)NC(=O)[C@H](CO)NC(=O)[C@H](CC(=O)O)NC(=O)[C@H](CC(C)C)NC(=O)[C@H](Cc1ccc(O)cc1)NC(=O)[C@H](CCCCN)NC(=O)[C@H](CO)NC(=O)[C@H](Cc1ccc(O)cc1)NC(=O)[C@H](CCC(=O)O)NC(=O)[C@H](CO)NC(=O)[C@@H](NC(=O)[C@@H](NC(=O)CNC(=O)[C@H](CCC(N)=O)NC(=O)[C@@H](N)CO)[C@@H](C)O)[C@@H](C)O)C(C)C)C(=O)N[C@@H](CC(N)=O)C(=O)N[C@H](C(N)=O)[C@@H](C)O | – | – | Not Active | –
CSCC[C@H](NC(=O)[C@H](CC(C)C)NC(=O)[C@H](Cc1c[nH]c2ccccc12)NC(=O)[C@H](CCC(N)=O)NC(=O)[C@@H](NC(=O)[C@H](Cc1ccccc1)NC(=O)[C@H](CC(=O)O)NC(=O)[C@H](CCC(N)=O)NC(=O)[C@H](C)NC(=O)[C@H](CCCN=C(N)N)NC(=O)[C@H](CCCN=C(N)N)NC(=O)[C@H](CO)NC(=O)[C@H](CC(=O)O)NC(=O)[C@H](CC(C)C)NC(=O)[C@H](Cc1ccc(O)cc1)NC(=O)[C@H](CCCCN)NC(=O)[C@H](CO)NC(=O)[C@H](Cc1ccc(O)cc1)NC(=O)[C@H](CCC(=O)O)NC(=O)[C@H](CO)NC(=O)[C@@H](NC(=O)[C@@H](NC(=O)CNC(=O)[C@H](CCC(N)=O)NC(=O)[C@@H](N)CO)[C@@H](C)O)[C@@H](C)O)C(C)C)C(=O)N[C@@H](CC(N)=O)C(=O)N[C@H](C(=O)O)[C@@H](C)O (stereo in doubt; 13) | – | – | Not Active | –
CSCC[C@H](NC(=O)[C@H](CC(C)C)NC(=O)[C@H](Cc1c[nH]c2ccccc12)NC(=O)[C@H](CCC(N)=O)NC(=O)[C@@H](NC(=O)[C@H](Cc1ccccc1)NC(=O)[C@H](CC(=O)O)NC(=O)[C@H](CCC(N)=O)NC(=O)[C@H](C)NC(=O)[C@H](CCCN=C(N)N)NC(=O)[C@H](CCCN=C(N)N)NC(=O)[C@H](CO)NC(=O)[C@H](CC(=O)O)NC(=O)[C@H](CC(C)C)NC(=O)[C@H](Cc1ccc(O)cc1)NC(=O)[C@H](CCCCN)NC(=O)[C@H](CO)NC(=O)[C@H](Cc1ccc(O)cc1)NC(=O)[C@H](CCC(=O)O)NC(=O)[C@H](CO)NC(=O)[C@@H](NC(=O)[C@H](CC(=O)O)NC(=O)[C@@H](NC(=O)CNC(=O)[C@H](CCC(N)=O)NC(=O)[C@@H](N)CO)[C@@H](C)O)[C@@H](C)O)C(C)C)C(=O)N[C@@H](CC(N)=O)C(=O)N[C@H](C(N)=O)[C@@H](C)O | – | – | Not Active | –
CSCC[C@H](NC(=O)[C@H](CC(C)C)NC(=O)[C@H](Cc1c[nH]c2ccccc12)NC(=O)[C@H](CCC(N)=O)NC(=O)[C@@H](NC(=O)[C@H](Cc1ccccc1)NC(=O)[C@H](CC(=O)O)NC(=O)[C@H](CCC(N)=O)NC(=O)[C@H](C)NC(=O)[C@H](CCCN=C(N)N)NC(=O)[C@H](CCCN=C(N)N)NC(=O)[C@H](CO)NC(=O)[C@H](CC(=O)O)NC(=O)[C@H](CC(C)C)NC(=O)[C@H](Cc1ccc(O)cc1)NC(=O)[C@H](CCCCN)NC(=O)[C@H](CO)NC(=O)[C@H](Cc1ccc(O)cc1)NC(=O)[C@H](CCC(=O)O)NC(=O)[C@H](CO)NC(=O)[C@@H](NC(=O)[C@H](Cc1c[nH]c2ccccc12)NC(=O)[C@@H](NC(=O)CNC(=O)[C@H](CCC(N)=O)NC(=O)[C@@H](N)CO)[C@@H](C)O)[C@@H](C)O)C(C)C)C(=O)N[C@@H](CC(N)=O)C(=O)N[C@H](C(N)=O)[C@@H](C)O | 0.562 µM | 0.019 µM | Not Active | –
CSCC[C@H](NC(=O)[C@H](CC(C)C)NC(=O)[C@H](Cc1c[nH]c2ccccc12)NC(=O)[C@H](CCC(N)=O)NC(=O)[C@@H](NC(=O)[C@H](Cc1ccccc1)NC(=O)[C@H](CC(=O)O)NC(=O)[C@H](CCC(N)=O)NC(=O)[C@H](C)NC(=O)[C@H](CCCN=C(N)N)NC(=O)[C@H](CCCN=C(N)N)NC(=O)[C@H](CO)NC(=O)[C@H](CC(=O)O)NC(=O)[C@H](CC(C)C)NC(=O)[C@H](Cc1ccc(O)cc1)NC(=O)[C@H](CCCCN)NC(=O)[C@H](CO)NC(=O)[C@H](Cc1ccc(O)cc1)NC(=O)[C@H](CCC(=O)O)NC(=O)[C@H](CO)NC(=O)[C@@H](NC(=O)[C@H](Cc1ccc(O)cc1)NC(=O)[C@@H](NC(=O)CNC(=O)[C@H](CCC(N)=O)NC(=O)[C@@H](N)CO)[C@@H](C)O)[C@@H](C)O)C(C)C)C(=O)N[C@@H](CC(N)=O)C(=O)N[C@H](C(N)=O)[C@@H](C)O | 0.631 µM | 0.04 µM | Not Active | –
CSCC[C@H](NC(=O)[C@H](CC(C)C)NC(=O)[C@H](Cc1c[nH]c2ccccc12)NC(=O)[C@H](CCC(N)=O)NC(=O)[C@@H](NC(=O)[C@H](Cc1ccccc1)NC(=O)[C@H](CC(=O)O)NC(=O)[C@H](CCC(N)=O)NC(=O)[C@H](C)NC(=O)[C@H](CCCN=C(N)N)NC(=O)[C@H](CCCN=C(N)N)NC(=O)[C@H](CO)NC(=O)[C@H](CC(=O)O)NC(=O)[C@H](CC(C)C)NC(=O)[C@H](Cc1ccc(O)cc1)NC(=O)[C@H](CCCCN)NC(=O)[C@H](CO)NC(=O)[C@H](Cc1ccc(O)cc1)NC(=O)[C@H](CCC(=O)O)NC(=O)[C@H](CO)NC(=O)[C@@H](NC(=O)[C@H](C)NC(=O)[C@@H](NC(=O)CNC(=O)[C@H](CCC(N)=O)NC(=O)[C@@H](N)CO)[C@@H](C)O)[C@@H](C)O)C(C)C)C(=O)N[C@@H](CC(N)=O)C(=O)N[C@H](C(N)=O)[C@@H](C)O | – | – | Not Active | –
CC(C)C[C@H](NC(=O)[C@H](Cc1ccc(O)cc1)NC(=O)[C@H](CCCCN)NC(=O)[C@H](CO)NC(=O)[C@H](Cc1ccc(O)cc1)NC(=O)[C@H](CC(=O)O)NC(=O)[C@H](CO)NC(=O)[C@@H](NC(=O)[C@@H](NC(=O)CNC(=O)[C@H](CCC(N)=O)NC(=O)[C@H](CO)NC(=O)[C@@H](N)Cc1c[nH]cn1)[C@@H](C)O)[C@@H](C)O)C(=O)N[C@@H](CC(=O)O)C(=O)N[C@@H](CO)C(=O)N[C@@H](CCCN=C(N)N)C(=O)N[C@@H](CCCN=C(N)N)C(=O)N[C@@H](C)C(=O)N[C@@H](CCC(N)=O)C(=O)N[C@@H](CC(=O)O)C(=O)N[C@@H](Cc1ccccc1)C(=O)N[C@H](C(=O)N[C@@H](CCC(N)=O)C(=O)N[C@@H](Cc1c[nH]c2ccccc12)C(=O)N[C@@H](CC(C)C)C(=O)N[C@@H](CCS)C(=O)N[C@@H](CC(N)=O)C(=O)N[C@H](C=O)[C@@H](C)O)C(C)C | – | – | Not Active | –
